Test results taken from US11970493B2, “Autotaxin inhibitor compounds” (ILDONG PHARMACEUTICAL CO., LTD., priority 2020, dated 2024).

biological target: hATX/ENPP2 (Homo sapiens, UniProt Q13822); experiment: hATX/ENPP2 biochemical assay using 16:0-LPC as substrate (Amplex Red/choline oxidase/HRP fluorescence); details: hENPP2 2.5 nM, LPC (16:0) substrate
Description: The enzyme is diluted in 50 mM Tris-HCl pH 8.0, 140 mM NaCl, 5 mM CaCl2, 0.01% Triton X-100 in a total volume of 5 μL. The aqueous solution of enzyme is added to the wells and incubated with different concentrations of the compounds at room temperature for 15 min. The reaction is started by the addition of 5 μL of 80 μM LPC (16:0) and 10 μL of the detection mixture containing 200 μM Amplex Red, 10 U/mL choline oxidase and 4 U/mL HRP. Fluorescence at 590 nm was measured kinetically with excitation at 530 nm. The slope of the curve (from 60 to 70 min of the reaction time) was used to calculate the compounds' IC50 values.

IC50 [nM] | SMILES
20 to 200 | CCc1nc2ccc(-c3cnc(N4CC(NC(=O)C5(O)CC5)C4)nc3)cn2c1N(C)c1nc(-c2ccc(F)cc2)c(C#N)s1 [Compound 31, N-(1-(5-(3-((5-cyano-4-(4-fluorophenyl)thiazol-2-yl)(methyl)amino)-2-ethylimidazo[1,2-a]pyridin-6-yl)pyrimidin-2-yl)azetidin-3-yl)-1-hydroxycyclopropane-1-carboxamide]
≤ 20 | CCc1nc2ccc(-c3cnc(N4CC(C(=O)NC5(C#N)CC5)C4)nc3)cn2c1N(C)c1nc(-c2ccc(F)cc2)c(C#N)s1 [Compound 32, 1-(5-(3-((5-cyano-4-(4-fluorophenyl)thiazol-2-yl)(methyl)amino)-2-ethylimidazo[1,2-a]pyridin-6-yl)pyrimidin-2-yl)-N-(1-cyanocyclopropyl)azetidine-3-carboxamide]
≤ 20 | CCc1nc2ccc(-c3cnc(N4CC(C(=O)NC5(CO)CC5)C4)nc3)cn2c1N(C)c1nc(-c2ccc(F)cc2)c(C#N)s1 [Compound 33, 1-(5-(3-((5-cyano-4-(4-fluorophenyl)thiazol-2-yl)(methyl)amino)-2-ethylimidazo[1,2-a]pyridin-6-yl)pyrimidin-2-yl)-N-(1-(hydroxylmethyl)cyclopropyl)azetidine-3-carboxamide]
> 200 | CCc1nc2ccc(-c3cnc(NC4CNC4)nc3)cn2c1N(C)c1nc(-c2ccc(F)cc2)c(C#N)s1 [Compound 34, 2-((6-(2-(azetidin-3-ylamino)pyrimidin-5-yl)-2-ethylimidazo[1,2-a]pyridin-3-yl)(methyl)amino)-4-(4-fluorophenyl)thiazole-5-carbonitrile]
20 to 200 | CCc1nc2ccc(-c3cnc(NC4CN(C(=O)C5(O)CC5)C4)nc3)cn2c1N(C)c1nc(-c2ccc(F)cc2)c(C#N)s1 [Compound 35, 2-((2-ethyl-6-(2-((1-(1-hydroxycyclopropane-1-carbonyl)azetidin-3-yl)amino)pyrimidin-5-yl)imidazo[1,2-a]pyridin-3-yl) (methyl)amino)-4-(4-fluorophenyl)thiazole-5-carbonitrile]
20 to 200 | CCc1nc2ccc(-c3cnc(NC4CN(C(=O)C5CNC5)C4)nc3)cn2c1N(C)c1nc(-c2ccc(F)cc2)c(C#N)s1 [Compound 36, 2-((6-(2-((1-(azetidine-3-carbonyl)azetidin-3-yl)amino)pyrimidin-5-yl)-2-ethylimidazo[1,2-a]pyridin-3-yl)(methyl)amino)-4-(4-fluorophenyl) thiazole-5-carbonitrile]
20 to 200 | CCc1nc2ccc(-c3cnc(NC4CN(C(=O)N5CC(O)C5)C4)nc3)cn2c1N(C)c1nc(-c2ccc(F)cc2)c(C#N)s1 [Compound 37, 2-((2-ethyl-6-(2-((1-(3-hydroxyazetidine-1-carbonyl)azetidin-3-yl)amino)pyrimidin-5-yl)imidazo[1,2-a]pyridin-3-yl)(methyl)amino)-4-(4-fluorophenyl)thiazole-5-carbonitrile]
20 to 200 | CCc1nc2ccc(-c3cnc(NCC4CN(C(=O)N5CC(O)C5)C4)nc3)cn2c1N(C)c1nc(-c2ccc(F)cc2)c(C#N)s1 [Compound 39, 2-((2-ethyl-6-(2-(((1-(3-hydroxyazetidine-1-carbonyl)azetidin-3-yl)methyl)amino)pyrimidin-5-yl)imidazo[1,2-a]pyridin-3-yl)(methyl)amino)-4-(4-fluorophenyl)thiazole-5-carbonitrile]
> 200 | CCc1nc2ccc(-c3cnc(NCC4CN(C(=O)C5CNC5)C4)nc3)cn2c1N(C)c1nc(-c2ccc(F)cc2)c(C#N)s1 [Compound 40, 2-((6-(2-(((1-(azetidine-3-carbonyl)azetidin-3-yl)methyl)amino)pyrimidin-5-yl)-2-ethylimidazo[1,2-a]pyridin-3-yl)(methyl)amino)-4-(4-fluorophenyl)thiazole-5-carbonitrile]
20 to 200 | CCc1nc2ccc(-c3cnc(NCC4CN(C(=O)C5(O)CC5)C4)nc3)cn2c1N(C)c1nc(-c2ccc(F)cc2)c(C#N)s1 [Compound 41, 2-((2-ethyl-6-(2-(((1-(1-hydroxycyclopropane-1-carbonyl)azetidin-3-yl)methyl)amino)pyrimidin-5-yl)imidazo[1,2-a]pyridin-3-yl)(methyl)amino)-4-(4-fluorophenyl)thiazole-5-carbonitrile]
≤ 20 | CCc1nc2ccc(-c3cnc(N4CCN(CC(=O)N5CC[C@@H](O)C5)CC4)nc3)cn2c1N(C)c1nc(-c2ccc(F)cc2)c(C#N)s1 [Compound 45, (R)-2-((2-ethyl-6-(2-(4-(2-(3-hydroxypyrrolidin-1-yl)-2-oxoethyl)piperazin-1-yl)pyrimidin-5-yl)imidazo[1,2-a]pyridin-3-yl)(methyl)amino)-4-(4-fluorophenyl)thiazole-5-carbonitrile]
≤ 20 | CCc1nc2ccc(-c3cnc(N4CCN(CC(=O)N5CC[C@H](O)C5)CC4)nc3)cn2c1N(C)c1nc(-c2ccc(F)cc2)c(C#N)s1 [Compound 46, (S)-2-((2-ethyl-6-(2-(4-(2-(3-hydroxypyrrolidin-1-yl)-2-oxoethyl)piperazin-1-yl)pyrimidin-5-yl)imidazo[1,2-a]pyridin-3-yl)(methyl)amino)-4-(4-fluorophenyl)thiazole-5-carbonitrile]
20 to 200 | CCc1nc2ccc(-c3cnc(C(=O)N4CC[C@H](O)C4)nc3)cn2c1N(C)c1nc(-c2ccc(F)cc2)c(C#N)s1 [Compound 48, (S)-2-((2-ethyl-6-(2-(3-hydroxypyrrolidine-1-carbonyl)pyrimidin-5-yl)imidazo[1,2-a]pyridin-3-yl)(methyl)amino)-4-(4-fluorophenyl) thiazole-5-carbonitrile]
20 to 200 | CCc1nc2ccc(-c3cnc(C(=O)N4CC[C@@H](O)C4)nc3)cn2c1N(C)c1nc(-c2ccc(F)cc2)c(C#N)s1 [Compound 49, (R)-2-((2-ethyl-6-(2-(3-hydroxypyrrolidine-1-carbonyl)pyrimidin-5-yl)imidazo[1,2-a]pyridin-3-yl)(methyl)amino)-4-(4-fluorophenyl) thiazole-5-carbonitrile]
20 to 200 | CCc1nc2ccc(-c3cnc(C(=O)NC4CNC4)nc3)cn2c1N(C)c1nc(-c2ccc(F)cc2)c(C#N)s1 [Compound 50, N-(azetidin-3-yl)-5-(3-((5-cyano-4-(4-fluorophenyl)thiazol-2-yl) (methyl)amino)-2-ethylimidazo[1,2-a]pyridin-6-yl)pyrimidine-2-carboxamide]
20 to 200 | CCc1nc2ccc(-c3cnc(C(=O)NC4CCNCC4)nc3)cn2c1N(C)c1nc(-c2ccc(F)cc2)c(C#N)s1 [Compound 51, 5-(3-((5-cyano-4-(4-fluorophenyl)thiazol-2-yl) (methyl)amino)-2-ethylimidazo[1,2-a]pyridin-6-yl)-N-(piperidin-4-yl)pyrimidine-2-carboxamide]
20 to 200 | CCc1nc2ccc(-c3cnc(CC(=O)N4CC(O)C4)nc3)cn2c1N(C)c1nc(-c2ccc(F)cc2)c(C#N)s1 [Compound 52, 2-((2-ethyl-6-(2-(2-(3-hydroxyazetidin-1-yl)-2-oxoethyl)pyrimidin-5-yl)imidazo[1,2-a]pyridin-3-yl)(methyl)amino)-4-(4-fluorophenyl)thiazole-5-carbonitrile]
20 to 200 | CCc1nc2ccc(-c3cnc(CC(=O)N4CC(NC5CNC5)C4)nc3)cn2c1N(C)c1nc(-c2ccc(F)cc2)c(C#N)s1 [Compound 53, 2-((6-(2-(2-(3-(azetidin-3-ylamino)azetidin-1-yl)-2-oxoethyl)pyrimidin-5-yl)-2-ethylimidazo[1,2-a]pyridin-3-yl)(methyl)amino)-4-(4-fluorophenyl)thiazole-5-carbonitrile]
20 to 200 | CCc1nc2ccc(-c3cnc(CC(=O)N4CC(NC)C4)nc3)cn2c1N(C)c1nc(-c2ccc(F)cc2)c(C#N)s1 [Compound 54, 2-((2-ethyl-6-(2-(2-(3-(methylamino)azetidin-1-yl)-2-oxoethyl)pyrimidin-5-yl)imidazo[1,2-a]pyridin-3-yl)(methyl)amino)-4-(4-fluorophenyl) thiazole-5-carbonitrile]
20 to 200 | CCc1nc2ccc(-c3cnc(CC(=O)N4CC[C@H](O)C4)nc3)cn2c1N(C)c1nc(-c2ccc(F)cc2)c(C#N)s1 [Compound 55, (S)-2-((2-ethyl-6-(2-(2-(3-hydroxypyrrolidin-1-yl)-2-oxoethyl)pyrimidin-5-yl)imidazo[1,2-a]pyridin-3-yl)(methyl)amino)-4-(4-fluorophenyl)thiazole-5-carbonitrile]
20 to 200 | CCc1nc2ccc(-c3cnc(CC(=O)N4CC[C@@H](O)C4)nc3)cn2c1N(C)c1nc(-c2ccc(F)cc2)c(C#N)s1 [Compound 56, (R)-2-((2-ethyl-6-(2-(2-(3-hydroxypyrrolidin-1-yl)-2-oxoethyl)pyrimidin-5-yl)imidazo[1,2-a]pyridin-3-yl)(methyl)amino)-4-(4-fluorophenyl)thiazole-5-carbonitrile]
20 to 200 | CCc1nc2ccc(-c3cnc(CC(=O)N4CCC(O)CC4)nc3)cn2c1N(C)c1nc(-c2ccc(F)cc2)c(C#N)s1 [Compound 57, 2-((2-ethyl-6-(2-(2-(4-hydroxypiperidin-1-yl)-2-oxoethyl)pyrimidin-5-yl)imidazo[1,2-a]pyridin-3-yl)(methyl)amino)-4-(4-fluorophenyl) thiazole-5-carbonitrile]
20 to 200 | CCc1nc2ccc(-c3cnc(CC(=O)N4CCNCC4)nc3)cn2c1N(C)c1nc(-c2ccc(F)cc2)c(C#N)s1 [Compound 58, 2-((2-ethyl-6-(2-(2-oxo-2-(piperazin-1-yl)ethyl)pyrimidin-5-yl)imidazo[1,2-a]pyridin-3-yl)(methyl)amino)-4-(4-fluorophenyl)thiazole-5-carbonitrile]
20 to 200 | CCc1nc2ccc(-c3cnc(CC(=O)N4CCOCC4)nc3)cn2c1N(C)c1nc(-c2ccc(F)cc2)c(C#N)s1 [Compound 59, 2-((2-ethyl-6-(2-(2-morpholino-2-oxoethyl)pyrimidin-5-yl)imidazo[1,2-a]pyridin-3-yl)(methyl)amino)-4-(4-fluorophenyl)thiazole-5-carbonitrile]
